# Measured values reported in PubChem BioAssay AID1963427 (Molecular Pharmacology Branch, DTP, NCI, 2024).
# Tested on: 317291-083-R-J1-PDC complex spheroid growth
# Assay: Anticancer human tumor 317291-083-R-J1-PDC patient-derived soft tissue sarcoma cell line growth inhibition [Asc]
# Settings: for IC50: curve of first compound; for viability, T/C: stronger effect = lower value
# Procedure, shortened: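 Concentration series start at each agent's clinical Cmax, or at 10 microM when none is established, and drop in half-log steps; agents are applied alone or together to complex spheroids built with HUVEC and hMSC.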
# [1] = second compound 0.0316 µM, first compound 0.0316 µM
# [2] = second compound 0.0316 µM, first compound 0.1 µM
# [3] = second compound 0.0316 µM, first compound 0.316 µM
# [4] = second compound 0.0316 µM, first compound 1 µM
# [5] = second compound 0.0316 µM, first compound 3.16 µM
# [6] = second compound 0.0316 µM, first compound 10 µM
# [7] = second compound 0.1 µM, first compound 0.0316 µM
# [8] = second compound 0.1 µM, first compound 0.1 µM
# [9] = second compound 0.1 µM, first compound 0.316 µM
# [10] = second compound 0.1 µM, first compound 1 µM
# [11] = second compound 0.1 µM, first compound 3.16 µM
# [12] = second compound 0.1 µM, first compound 10 µM
# [13] = second compound 0.316 µM, first compound 0.0316 µM
# [14] = second compound 0.316 µM, first compound 0.1 µM
# [15] = second compound 0.316 µM, first compound 0.316 µM
# [16] = second compound 0.316 µM, first compound 1 µM
# [17] = second compound 0.316 µM, first compound 3.16 µM
# [18] = second compound 0.316 µM, first compound 10 µM
# [19] = second compound 1 µM, first compound 0.0316 µM
# [20] = second compound 1 µM, first compound 0.1 µM
# [21] = second compound 1 µM, first compound 0.316 µM
# [22] = second compound 1 µM, first compound 1 µM
# [23] = second compound 1 µM, first compound 3.16 µM
# [24] = second compound 1 µM, first compound 10 µM
# [25] = second compound 3.16 µM, first compound 0.0316 µM
# [26] = second compound 3.16 µM, first compound 0.1 µM
# [27] = second compound 3.16 µM, first compound 0.316 µM
# [28] = second compound 3.16 µM, first compound 1 µM
# [29] = second compound 3.16 µM, first compound 3.16 µM
# [30] = second compound 3.16 µM, first compound 10 µM
# [31] = second compound 10 µM, first compound 0.0316 µM
# [32] = second compound 10 µM, first compound 0.1 µM
# [33] = second compound 10 µM, first compound 0.316 µM
# [34] = second compound 10 µM, first compound 1 µM
# [35] = second compound 10 µM, first compound 3.16 µM
# [36] = second compound 10 µM, first compound 10 µM
# 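Further: compound exposure lasted seven days after spheroids formed for three days.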
# 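Wherever viability, T/C is given: 100% = DMSO vehicle control wells.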
structure (smiles),measurement,setting,value
O=C(c1cc(Cc2n[nH]c(=O)c3ccccc23)ccc1F)N1CCN(C(=O)C2CC2)CC1 + Cc1c(S(C)(=O)=O)c(-c2cc(F)cc(N3CCN(c4ccc(NS(=O)(=O)c5ccc(NC(CCN6CCC(C(=O)OCCCP(=O)(O)O)CC6)CSc6ccccc6)c(S(=O)(=O)C(F)(F)F)c5)cc4)CC3)c2)c(-c2ccc(Cl)cc2)n1C(C)C,IC50,second compound 0.0316 µM,6.94 µM
same,IC50,second compound 0.1 µM,8.29 µM
same,IC50,second compound 0.316 µM,5.21 µM
same,IC50,second compound 1 µM,4.35 µM
same,IC50,second compound 3.16 µM,5.16 µM
same,IC50,second compound 10 µM,5.44 µM
same,"viability, T/C",[1],84.8%
same,"viability, T/C",[2],72.5%
same,"viability, T/C",[3],88%
same,"viability, T/C",[4],75.9%
same,"viability, T/C",[5],68.2%
same,"viability, T/C",[6],41.5%
same,"viability, T/C",[7],90%
same,"viability, T/C",[8],87.3%
same,"viability, T/C",[9],79.1%
same,"viability, T/C",[10],84%
same,"viability, T/C",[11],70%
same,"viability, T/C",[12],45.9%
same,"viability, T/C",[13],82.8%
same,"viability, T/C",[14],80.5%
same,"viability, T/C",[15],90.2%
same,"viability, T/C",[16],75.7%
same,"viability, T/C",[17],61.8%
same,"viability, T/C",[18],35.3%
same,"viability, T/C",[19],73.7%
same,"viability, T/C",[20],98.6%
same,"viability, T/C",[21],69.1%
same,"viability, T/C",[22],63.7%
same,"viability, T/C",[23],64.7%
same,"viability, T/C",[24],27.9%
same,"viability, T/C",[25],75.7%
same,"viability, T/C",[26],62.6%
same,"viability, T/C",[27],61.8%
same,"viability, T/C",[28],54.1%
same,"viability, T/C",[29],67.6%
same,"viability, T/C",[30],30.8%
same,"viability, T/C",[31],90.6%
same,"viability, T/C",[32],83.4%
same,"viability, T/C",[33],95.8%
same,"viability, T/C",[34],83.2%
same,"viability, T/C",[35],69.1%
same,"viability, T/C",[36],28.9%
C=CC(=O)N1CCN(c2nc(=O)n(-c3c(C)ccnc3C(C)C)c3nc(-c4c(O)cccc4F)c(F)cc23)C(C)C1 (centres undefined) + Cc1c(S(C)(=O)=O)c(-c2cc(F)cc(N3CCN(c4ccc(NS(=O)(=O)c5ccc(NC(CCN6CCC(C(=O)OCCCP(=O)(O)O)CC6)CSc6ccccc6)c(S(=O)(=O)C(F)(F)F)c5)cc4)CC3)c2)c(-c2ccc(Cl)cc2)n1C(C)C,IC50,second compound 0.0316 µM,> 10 µM
same,IC50,second compound 0.1 µM,> 10 µM
same,IC50,second compound 0.316 µM,> 10 µM
same,IC50,second compound 1 µM,> 10 µM
same,IC50,second compound 3.16 µM,8.05 µM
same,IC50,second compound 10 µM,9.46 µM
same,"viability, T/C",[1],108%
same,"viability, T/C",[2],86.8%
same,"viability, T/C",[3],108%
same,"viability, T/C",[4],98.3%
same,"viability, T/C",[5],98.3%
same,"viability, T/C",[6],66.1%
same,"viability, T/C",[7],84.4%
same,"viability, T/C",[8],97.7%
same,"viability, T/C",[9],86.1%
same,"viability, T/C",[10],86.5%
same,"viability, T/C",[11],100%
same,"viability, T/C",[12],60.1%
same,"viability, T/C",[13],91%
same,"viability, T/C",[14],102%
same,"viability, T/C",[15],85.3%
same,"viability, T/C",[16],90.6%
same,"viability, T/C",[17],83.9%
same,"viability, T/C",[18],59.7%
same,"viability, T/C",[19],81.5%
same,"viability, T/C",[20],84.3%
same,"viability, T/C",[21],96.2%
same,"viability, T/C",[22],80.2%
same,"viability, T/C",[23],81.7%
same,"viability, T/C",[24],51.7%
same,"viability, T/C",[25],82.4%
same,"viability, T/C",[26],70.7%
same,"viability, T/C",[27],87.8%
same,"viability, T/C",[28],74.7%
same,"viability, T/C",[29],79.5%
same,"viability, T/C",[30],43.2%
same,"viability, T/C",[31],87.1%
same,"viability, T/C",[32],90.6%
same,"viability, T/C",[33],93.2%
same,"viability, T/C",[34],88.6%
same,"viability, T/C",[35],96.6%
same,"viability, T/C",[36],47.9%
